Test results reported in patent US4435385A, “N-Acyl-polypeptides and processes for the production thereof” (Sandoz Ltd., priority 1981, dated 1984).

Test system: gastric secretion
Experiment: TEST II: pentagastrin-stimulated gastric secretion in pylorus-ligated rats
Format: in vivo, rat
Details: male rats, i.m., 100 μg/kg pentagastrin s.c., 30 mins; dose for 50% inhibition vs untreated controls
Method: Male rats (220-280 g) are kept in the laboratory in individual cages for several days (14 hours light/day) with 48 hours fasting (but free access to water) immediately prior to the experiment. At the start of the experiment the pylorus is ligated under ether anaesthesia and 100 μg/kg pentagastrin are injected s.c. to stimulate gastric secretion. The test compounds are injected simultaneously i.m. 30 mins. later the animals are sacrificed, the volume of gastric juice measured and the acid concentration estimated (titration with thymol blue). The acid output is calculated and the percent inhibition estimated in relation to untreated controls.

C[C@H](N)C(=O)NCC(=O)N[C@H]1CSSC[C@@H](C(=O)O)NC(=O)[C@H](CO)NC(=O)[C@H]([C@@H](C)O)NC(=O)[C@H](Cc2ccccc2)NC(=O)[C@H]([C@@H](C)O)NC(=O)[C@H](CCCCN)NC(=O)[C@H](Cc2c[nH]c3ccccc23)NC(=O)[C@H](Cc2ccccc2)NC(=O)[C@H](Cc2ccccc2)NC(=O)[C@H](CC(N)=O)NC(=O)[C@H](CCCCN)NC1=O [somatostatin]
ID50 in TEST II for acid concentration: 35 µg/kg
